Where two headings read alike, the source gives them in different places.
Assays:
[1] = test system: BoNT/A1 cleavage of SNAP-25 in hiPSC-derived motor neurons; experiment: cells; format: cell-based, human
BoNT/A LC [2] = target: T1, BoNT/A LC (Clostridium botulinum, UniProt P0DPI0); experiment: biochemical; format: biochemical
BoNT/A LC [3] = target: T1, BoNT/A LC; experiment: biochemical
BoNT/A LC WT = BoNT/A LC WT (Clostridium botulinum, UniProt P0DPI0); format: binding
BoNT/A LC [4] = target: T1, BoNT/A LC; experiment: biochemical; conditions: read-out: inhibited BoNT/A LC activity

T1 sequence (P0DPI0 2-448 limits assumed): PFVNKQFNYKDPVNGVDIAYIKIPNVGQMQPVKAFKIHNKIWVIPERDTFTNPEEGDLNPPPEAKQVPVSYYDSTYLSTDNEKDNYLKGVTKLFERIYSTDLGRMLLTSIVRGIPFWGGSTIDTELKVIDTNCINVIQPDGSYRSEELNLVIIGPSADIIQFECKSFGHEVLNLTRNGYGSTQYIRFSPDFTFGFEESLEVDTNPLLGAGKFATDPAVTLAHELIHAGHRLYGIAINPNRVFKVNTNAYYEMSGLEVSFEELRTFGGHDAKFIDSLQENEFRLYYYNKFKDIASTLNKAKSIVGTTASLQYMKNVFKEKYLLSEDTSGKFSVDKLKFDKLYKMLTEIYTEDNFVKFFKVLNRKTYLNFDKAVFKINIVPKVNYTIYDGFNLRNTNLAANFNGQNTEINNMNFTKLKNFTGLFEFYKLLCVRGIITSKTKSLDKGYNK
Sequence of BoNT/A LC WT (P0DPI0 2-448 limits assumed): as above

For `O=c1cc(CNCc2cccc(Cl)c2)nc2c(O)cccn12` [Compound 18, 2-(((3-Chlorobenzyl)amino)methyl)-9-hydroxy-4H-pyrido [1,2-a]pyrimidin-4-one], the “inhibition of SNAP-25 cleavage (in words)” value (“inhibition … (in words)” below) [1] was “neither 2 nor 18 inhibited the cleavage of SNAP-25” and the IC50 (BoNT/A LC [2]) was 1700 ± 300 nM.

`CS(=O)(=O)SCCCCCCCc1ccn2c(=O)cc(CNCc3ccc(-c4ccccc4)cc3)nc2c1O` [Compound 84] showed a Ki (BoNT/A LC [3]) of 32000 ± 6000 nM, a kinact (BoNT/A LC [3]) of 0.0038 ± 0.0008 s⁻¹ and a kinact/KI (BoNT/A LC [3]) of 120 ± 30 M⁻¹ s⁻¹.

In the case of `O=c1cc(COCc2cccc(Cl)c2)nc2c(O)cccn12` [Compound 35, 2-(((3-Chlorobenzyl)oxy)methyl)-9-hydroxy-4H-pyrido [1,2-a]pyrimidin-4-one], the “inhibition … (in words)” value [1] is reported as “did not have any apparent effect on SNAP-25 cleavage” and the IC50 (BoNT/A LC [2]) is reported as 7500 ± 500 nM.

With `CS(=O)(=O)SCCCCCc1ccn2c(=O)cc(CNCc3ccc(-c4ccccc4)cc3)nc2c1O` [Compound 82, S-(6-(2-((([1,1′-biphenyl]-4-ylmethyl)amino)methyl)-9-hydroxy-4-oxo-4H-pyrido [1,2-a]pyrimidin-8-yl)pentyl) methanesulfonothioate] the “covalent adduct formation by HRMS (in words)” value (shortened to “covalent adduct formation”) (BoNT/A LC WT) was “an increase in mass matching two covalent adducts”, the Ki (BoNT/A LC [3]) was 1870 ± 110 nM and the kinact (BoNT/A LC [3]) was 0.0024 ± 0.0002 s⁻¹. It also gave a kinact/KI (BoNT/A LC [3]) of 1260 ± 130 M⁻¹ s⁻¹.

In the case of `O=c1cc(CNCc2ccc(-c3ccccc3)cc2)nc2c(O)cccn12` [Compound 27, 2-((([1,1′-biphenyl]-4-ylmethyl)amino)methyl)-9-hydroxy-4H-pyrido [1,2-a]pyrimidin-4-one], the IC50 ([1]; Homo sapiens, Neuron, 0.5 h) is reported as 13000 nM, the “covalent adduct formation” value (BoNT/A LC WT) is reported as “Neither of the reversible compounds 2 and 27 showed any change in mass” and the IC50 (BoNT/A LC [2]) is reported as 300 ± 100 nM. For the same molecule, the Ki (BoNT/A LC [2]) was 150 nM and the “potency compared to 2 (in words)” value (BoNT/A LC [2]) was “significantly increased inhibitory potency”.

In the case of `O=c1cc(COCc2cccc(F)c2)nc2c(O)cccn12` [Compound 32, 2-(((3-Fluorobenzyl)oxy)methyl)-9-hydroxy-4H-pyrido [1,2-a]pyrimidin-4-one], the “protection of SNAP-25 (in words)” value [1] is reported as “nearly complete protection of SNAP-25”, the IC50 (BoNT/A LC [2]) is reported as 11000 ± 1000 nM and the “less potent than 2 in the enzyme assay” value (BoNT/A LC [2]) is reported as about 10 fold.

With `O=C(O)c1ccc2c(c1)N(Cc1cc(=O)n3cccc(O)c3n1)CC2` [Compound 54, 1-((9-Hydroxy-4-oxo-4H-pyrido [1,2-a]pyrimidin-2-yl)methyl)indoline-6-carboxylic acid] the “protection of SNAP-25 (in words)” value [1] was “protect against SNAP-25 cleavage” and the IC50 (BoNT/A LC [2]) was 1200 ± 100 nM.

`O=c1cc(CN2CCc3cc(Cl)ccc32)nc2c(O)cccn12` [Compound 47, 2-((5-Chloroindolin-1-yl)methyl)-9-hydroxy-4H-pyrido [1,2-a]pyrimidin-4-one] was tested, and the “protection of SNAP-25 (in words)” value [1] was “protect against SNAP-25 cleavage” and the IC50 (BoNT/A LC [2]) was 900 ± 600 nM.

`CS(=O)(=O)SCCCCCCc1ccn2c(=O)cc(CNCc3ccc(-c4ccccc4)cc3)nc2c1O` [Compound 83, S-(6-(2-((([1,1′-biphenyl]-4-ylmethyl)amino)methyl)-9-hydroxy-4-oxo-4H-pyrido [1,2-a]pyrimidin-8-yl)hexyl) methanesulfonothioate] gave a Ki (BoNT/A LC [3]) of 3400 ± 500 nM, a kinact (BoNT/A LC [3]) of 0.0028 ± 0.0002 s⁻¹ and a kinact/KI (BoNT/A LC [3]) of 820 ± 30 M⁻¹ s⁻¹.

With `O=c1cc(COCc2ccc(Cl)cc2)nc2c(O)cccn12` [Compound 36, 2-(((4-Chlorobenzyl)oxy)methyl)-9-hydroxy-4H-pyrido [1,2-a]pyrimidin-4-one] the IC50 (BoNT/A LC [2]) was 4130 ± 90 nM.

Molecule `O=c1cc(CNCc2cccc(-c3ccccc3)c2)nc2c(O)cccn12` [Compound 26, 2-((([1,1′-biphenyl]-3-ylmethyl)amino)methyl)-9-hydroxy-4H-pyrido [1,2-a]pyrimidin-4-one] has an IC50 (BoNT/A LC [2]) of 600 ± 100 nM.

Work on `O=C(O)C1CNCCN(Cc2cc(=O)n3cccc(O)c3n2)C1` (stereo not shown) [Compound 1] yielded an inhibition at 40 µM (BoNT/A LC [4]) of over 90% and an IC50 (BoNT/A LC [2]) of 7400 ± 500 nM.

`O=c1cc(CN2CCc3ccccc32)nc2c(O)cccn12` [Compound 46, 9-Hydroxy-2-(indolin-1-ylmethyl)-4H-pyrido [1,2-a]pyrimidin-4-one] gave an IC50 (BoNT/A LC [2]) of 2900 ± 100 nM.

With `O=c1cc(CNCc2ccccc2)nc2c(O)cccn12` [Compound 2, 2-((Benzylamino)methyl)-9-hydroxy-4H-pyrido [1,2-a]pyrimidin-4-one] the “inhibition … (in words)” value [1] was “neither 2 nor 18 inhibited the cleavage of SNAP-25”, the “covalent adduct formation” value (BoNT/A LC WT) was “Neither of the reversible compounds 2 and 27 showed any change in mass” and the IC50 (BoNT/A LC [2]) was 900 ± 200 nM. The “fold more potent than initial lead 1” value (BoNT/A LC [2]) was “approximately seven-fold”.

For `COC(=O)c1cccc(CNCc2cc(=O)n3cccc(O)c3n2)c1` [Compound 24, Methyl 3-((((9-hydroxy-4-oxo-4H-pyrido [1,2-a]pyrimidin-2-yl)methyl)amino)methyl) benzoate], the IC50 (BoNT/A LC [2]) was 410 ± 80 nM.

`NCc1cc(=O)n2cccc(O)c2n1` [Compound 13, 2-(Aminomethyl)-9-hydroxy-4H-pyrido [1,2-a]pyrimidin-4-one] was tested, and the “inhibitory activity against BoNT/A LC (in words)” value (BoNT/A LC [2]) was “a decrease in inhibitory potency”.

In the case of `O=c1cc(COCc2ccccc2F)nc2c(O)cccn12` [Compound 31, 2-(((2-Fluorobenzyl)oxy)methyl)-9-hydroxy-4H-pyrido [1,2-a]pyrimidin-4-one], the IC50 (BoNT/A LC [2]) is reported as 18000 ± 2000 nM.

`O=c1cc(CN2Cc3ccc(Br)cc3C2)nc2c(O)cccn12` [Compound 44, 2-((5-Bromoisoindolin-2-yl)methyl)-9-hydroxy-4H-pyrido [1,2-a]pyrimidin-4-one] was tested, and the IC50 (BoNT/A LC [2]) was 400 ± 20 nM.

Molecule `Cc1cccc(COCc2cc(=O)n3cccc(O)c3n2)c1` [Compound 38, 9-Hydroxy-2-(((3-methylbenzyl)oxy)methyl)-4H-pyrido [1,2-a]pyrimidin-4-one] has an IC50 (BoNT/A LC [2]) of 6600 ± 500 nM.

`O=C(O)[C@@H]1CN(Cc2cc(=O)n3cccc(O)c3n2)C[C@H]1c1ccccn1` [Compound 3] was tested, and the IC50 (BoNT/A LC [2]) was 1300 ± 200 nM and the “fold more potent than initial lead 1” value (BoNT/A LC [2]) was “approximately seven-fold”.

With `O=c1cc(CCCc2ccccc2)nc2c(O)cccn12` [Compound 7, 9-Hydroxy-2-(3-phenylpropyl)-4H-pyrido [1,2-a]pyrimidin-4-one] the “inhibitory activity against BoNT/A LC (in words)” value (BoNT/A LC [2]) was “drastic decrease in inhibitory activity”.

Reference: PMC10001950 (International Journal of Molecular Sciences, 2023)
